According to PMC6522510 (Nature Communications, 2019):
pEC50, pIC50: −log10 of the molar value. Read-outs that look alike come from different tables or passages of the source.

What was measured:
[1] = system: M07e; experiment: cells; parameters: species or system AML cell lines (8); details: M-07e, 72 h, read-out: M07e
[2] = system: CMK; experiment: cells; parameters: species or system AML cell lines (8); details: Homo sapiens, 72 h, read-out: CMK
[3] = system: MV4-11; experiment: Secondary dose-response HTS, Cell Titer Glo; assay type: cell-based, human; details: for pEC50: Homo sapiens
[4] = system: ML2; experiment: Secondary dose-response HTS, Cell Titer Glo; assay type: cell-based, human; details: for pEC50: Homo sapiens, read-out: average effective concentration, ML-2
[5] = system: CHRF288-11; experiment: cells; parameters: species or system AML cell lines (8); details: 72 h, read-out: CHRF288-11
[6] = system: U937; experiment: cells; parameters: species or system AML cell lines (8); details: Homo sapiens, U-937, 72 h, read-out: U937
[7] = system: M07e; experiment: Secondary dose-response HTS, Cell Titer Glo; assay type: cell-based, human; details: for pEC50: Homo sapiens, M-07e
[8] = system: CHRF288-11; experiment: Secondary dose-response HTS, Cell Titer Glo; assay type: cell-based, human; details: for pEC50: Homo sapiens
[9] = system: CMS; experiment: Secondary dose-response HTS, Cell Titer Glo; assay type: cell-based, human; details: for pEC50: Homo sapiens
[10] = system: U937; experiment: Secondary dose-response HTS, Cell Titer Glo; assay type: cell-based, human; details: for pEC50: Homo sapiens, U-937
[11] = system: CMK; experiment: Secondary dose-response HTS, Cell Titer Glo; assay type: cell-based, human; details: for pEC50: Homo sapiens
[12] = system: ML-2; experiment: cells; parameters: species or system AML cell lines (8); details: Homo sapiens, ML-2, 72 h, read-out: ML-2
[13] = system: MOLM-13; experiment: Secondary dose-response HTS, Cell Titer Glo; assay type: cell-based, human; details: for pEC50: Homo sapiens
[14] = system: MV4-11; experiment: cells; parameters: species or system AML cell lines (8); details: Homo sapiens, MV4-11, 72 h, read-out: MV4-11
[15] = system: MOLM-13; experiment: cells; parameters: species or system AML cell lines (8); Secondary HTS, 10-point dose-response in triplicate, Cell Titer Glo viability, four-parameter fit EC50; details: Homo sapiens; 72 h cell viability; read-out: MOLM-13
[16] = system: CMS; experiment: cells; parameters: species or system AML cell lines (8); details: 72 h, read-out: CMS
[17] = system: FLT3-ITD+ primary AML blast samples
[18] = system: MLLr primary AML blast samples; experiment: Ex vivo drug treatment of primary AML blasts on mesenchymal stromal cells; assay type: cell-based; details: Homo sapiens; primary blasts on MSC, 96 h, range over patient samples
[19] = system: AMKL primary AML blast samples; experiment: as above; assay type: cell-based; details: Homo sapiens; primary blasts on MSC, 96 h
[20] = system: M07e; experiment: cells; parameters: species or system AML cell lines (8); Secondary HTS, 10-point dose-response in triplicate, Cell Titer Glo viability, four-parameter fit EC50; details: M-07e, 72 h, read-out: M07e
[21] = system: U937; experiment: cells; parameters: species or system AML cell lines (8); Secondary HTS, 10-point dose-response in triplicate, Cell Titer Glo viability, four-parameter fit EC50; details: Homo sapiens, U-937, 72 h, read-out: U937
[22] = system: MV4-11; experiment: cells; parameters: species or system AML cell lines (8); Secondary HTS, 10-point dose-response in triplicate, Cell Titer Glo viability, four-parameter fit EC50; details: Homo sapiens, MV4-11, 72 h, read-out: MV4-11
[23] = system: CMK; experiment: cells; parameters: species or system AML cell lines (8); Secondary HTS, 10-point dose-response in triplicate, Cell Titer Glo viability, four-parameter fit EC50; details: Homo sapiens, CMK, 72 h, read-out: CMK
[24] = system: CMS; experiment: cells; parameters: species or system AML cell lines (8); Secondary HTS, 10-point dose-response in triplicate, Cell Titer Glo viability, four-parameter fit EC50; details: 72 h, read-out: CMS
[25] = system: MOLM-13; experiment: cells; parameters: species or system AML cell lines (8); Secondary HTS, 10-point dose-response in triplicate, Cell Titer Glo viability, four-parameter fit EC50; details: Homo sapiens, MOLM-13, 72 h, read-out: MOLM-13
[26] = system: CHRF288-11; experiment: cells; parameters: species or system AML cell lines (8); Secondary HTS, 10-point dose-response in triplicate, Cell Titer Glo viability, four-parameter fit EC50; details: 72 h, read-out: CHRF288-11
[27] = secondary high-throughput screen, MV4-11
[28] = secondary high-throughput screen, ML-2
[29] = secondary high-throughput screen, […]
[30] = secondary high-throughput screen, CHRF288-11
[31] = secondary high-throughput screen, CMS
[32] = secondary high-throughput screen, U937
[33] = secondary high-throughput screen, CMK
[34] = secondary high-throughput screen, MOLM-13
[35] = secondary high-throughput screen, MV4-11, read-out: average effective concentration, MV4-11
[36] = secondary high-throughput screen, M07e, read-out: average effective concentration, M07e
[37] = secondary high-throughput screen, MOLM-13, read-out: average effective concentration, MOLM-13
[38] = secondary high-throughput screen, CMK, read-out: average effective concentration, CMK

SMILES | pEC50 [1] | pEC50 [2] | pEC50 [5] | pEC50 [6] | pEC50 [12] | pEC50 [14] | pEC50 [15] | pEC50 [16] | average effective concentration, ML-2 [4, 28] | average effective concentration, CHRF288-11 [8, 30] | average effective concentration, U937 [10, 32] | average effective concentration, CMK [11, 33] | pIC50 [17] | pEC50 [3, 35] | pIC50 [18] | pEC50 [13, 37] | further results
O=P1(N(CCCl)CCCl)NCCCO1 (centres unmarked) [CYCLOPHOSPHAMIDE] | < 5.00 | < 5.00 | < 5.00 | < 5.00 | < 5.00 | < 5.00 | < 5.00 | < 5.00 | – | – | – | – | – | – | – | – | average effective concentration, MV4-11 [3]: Inactive; average effective concentration, ML-2 [4]: Inactive; average effective concentration, M07e [7]: Inactive; average effective concentration, CHRF288-11 [8]: Inactive; average effective concentration, CMS [9]: Inactive; average effective concentration, U937 [10]: Inactive; average effective concentration, CMK [11]: Inactive; average effective concentration, MOLM-13 [13]: Inactive
Cn1c(COP(=O)(NCCBr)NCCBr)cnc1[N+](=O)[O-] [TH-302] | < 5.00 | < 5.00 | < 5.00 | < 5.00 | < 5.00 | < 5.00 | < 5.00 | < 5.00 | Inactive | Inactive | Inactive | Inactive | – | – | – | – | average effective concentration, MV4-11 [3, 27]: Inactive; average effective concentration, M07e [7, 29]: Inactive; average effective concentration, CMS [9, 31]: Inactive; average effective concentration, MOLM-13 [13, 34]: Inactive
Cn1ncnc1[C@H]1c2n[nH]c(=O)c3cc(F)cc(c23)N[C@@H]1c1ccc(F)cc1 [Talazoparib] | – | – | – | – | – | – | – | – | – | – | – | – | 5.61 to 5.70 | – | – | – | –
CCOc1cc(C(C)(C)C)ccc1C1=N[C@@](C)(c2ccc(Cl)cc2)[C@@](C)(c2ccc(Cl)cc2)N1C(=O)N1CCN(CCCS(C)(=O)=O)CC1 [RG7112, reference compound] | – | – | – | – | – | – | – | – | – | – | – | – | 6.02 to 7.11 | 5.60 | 6.07 to 6.83 | 6.54 | pEC50 [4, 28]: 5.17; pEC50 [7, 36]: < 5.00
CC1(C)CCC(CN2CCN(c3ccc(C(=O)NS(=O)(=O)c4ccc(NCC5CCOCC5)c([N+](=O)[O-])c4)c(Oc4cnc5[nH]ccc5c4)c3)CC2)=C(c2ccc(Cl)cc2)C1 [Venetoclax, reference compound] | – | – | – | – | – | – | – | – | Inactive | Inactive | Inactive | Inactive | 7.80 to 8.49 | 9.00 | 5.98 to 7.34 | < 5.00 | average effective concentration, M07e ([7]; secondary high-throughput screen, M07e): Inactive; pEC50 ([9]; HTS, read-out: average effective concentration, CMS): < 5.00
O=C(CCCCCCC(=O)Nc1ccccc1)NO [Vorinostat, reference compound] | – | – | – | – | – | – | – | – | – | – | – | – | 5.54 to 6.52 | 6.10 | – | – | –
CC(=O)c1c(C)c2cnc(Nc3ccc(N4CCNCC4)cn3)nc2n(C2CCCC2)c1=O [Palbociclib, reference compound] | – | – | – | – | – | – | – | – | – | – | – | – | 5.28 to 6.01 | – | 5.40 to 5.95 | – | pEC50 ([9]; HTS, secondary high-throughput screen, CMS, read-out: average effective concentration, CMS): 5.04; pEC50 ([10]; secondary high-throughput screen, U937, read-out: average effective concentration, U937): 5.00; pIC50 [19]: 5.29; pEC50 [11, 38]: 5.46
CC(=O)Nc1cccc(-n2c(=O)n(C3CC3)c(=O)c3c(Nc4ccc(I)cc4F)n(C)c(=O)c(C)c32)c1 [Trametinib] | – | – | – | – | – | – | – | – | – | – | – | – | 5.27 to 6.89 | – | 5.83 to 8.80 | – | pEC50 [20]: < 5.00; pEC50 [4, 28]: 9.00; pEC50 [21]: < 5.00; pEC50 [22]: < 5.00; pEC50 [23]: < 5.00; pEC50 [24]: < 5.00; pEC50 [25]: < 5.00; pEC50 [26]: < 5.00
COC1=CC(=O)O[C@@H](/C=C/c2ccc3c(c2)OCO3)C1 [METHYSTICIN] | < 5.00 | < 5.00 | < 5.00 | < 5.00 | < 5.00 | < 5.00 | < 5.00 | < 5.00 | Inactive | Inactive | Inactive | Inactive | – | – | – | – | average effective concentration, MV4-11 [3, 27]: Inactive; average effective concentration, M07e [7, 29]: Inactive; average effective concentration, CMS [9, 31]: Inactive; average effective concentration, MOLM-13 [13, 34]: Inactive
CC(C)C[C@H](NC(=O)[C@H](CCc1ccccc1)NC(=O)CN1CCOCC1)C(=O)N[C@@H](Cc1ccccc1)C(=O)N[C@@H](CC(C)C)C(=O)[C@@]1(C)CO1 [Carfilzomib, reference compound] | – | – | – | – | – | – | – | – | – | – | – | – | 7.21 to 8.22 | 8.96 | 7.28 to 8.37 | 8.26 | pEC50 ([3]; MV4-11, secondary HTS, 72 h, average of triplicate, read-out: EC50 MV4-11): 9.00; pEC50 ([7]; secondary HTS, 72 h, average of triplicate, read-out: EC50 M07e): 9.00; pEC50 [7, 36]: 8.85; pEC50 ([8]; HTS, secondary high-throughput screen, CHRF288-11, read-out: average effective concentration, CHRF288-11): 7.72; pEC50 ([8]; secondary HTS, 72 h, average of triplicate, read-out: EC50 CHRF288-11): 7.70; pEC50 ([9]; secondary HTS, 72 h, average of triplicate, read-out: EC50 CMS): 9.00; pEC50 ([10]; secondary HTS, 72 h, average of triplicate, read-out: EC50 U937): 8.00; pIC50 [19]: 7.27; pEC50 ([11]; CMK, secondary HTS, 72 h, average of triplicate, read-out: EC50 CMK): 8.00; pEC50 [11, 38]: 8.22; pEC50 ([13]; MOLM-13, secondary HTS, 72 h, average of triplicate, read-out: EC50 MOLM-13): 8.00
